Test results as given in patent US20220041627A1, “PRODRUGS OF ANTI-CANCER AND ANTI-AUTOIMMUNE DISEASES THERAPEUTIC AGENTS, AND METHODS OF MAKING AND USE THEREOF” (UNIVERSITY OF MARYLAND, BALTIMORE, priority 2018, published 2022).

How the values were obtained:
Type in all cases: cell-based, human
SF-539 = assay: NCI-60 growth inhibition, SF-539
Source text: (§1) The anticancer effects of compounds 1a-1b against 60 human cancer cell lines (the Developmental Therapeutics Program of NCI) were studied. The cell lines were derived from different cancer types including leukemia, non-small-cell lung cancer, colon cancer, CNS cancer, melanoma, ovarian cancer, renal cancer, prostate cancer, and breast cancer (Table 1; the assay protocol can be found at: https://dtp.cancer.gov/default.htm). Compound 1a caused over 50% growth inhibition for most tested cell lines. […] Without wishing to be bound by any particular theory, it is believed that the differences in the anticancer effects between compounds 1a and 1b may be due to the more favorable cell membrane permeability of the boronic ester 1a.

K-562 = assay: NCI-60 growth inhibition, K-562
Source text: as §1

NCI-H23 = assay: NCI-60 growth inhibition, NCI-H23
Source text: as §1

SN12C = assay: NCI-60 growth inhibition, SN12C; settings: Renal Cancer SN12C, 48 h
Source text: as §1

DU-145 = assay: NCI-60 growth inhibition, DU-145
Source text: as §1

IGROV1 = assay: NCI-60 growth inhibition, IGROV1
Source text: as §1

OVCAR-4 = assay: NCI-60 growth inhibition, OVCAR-4
Source text: as §1

γH2AX = γH2AX immunofluorescence assay in MCF7 cells; settings: 48 h
Protocol: FIGS. 4A and 4B illustrate the effect of compounds 1a-1b in apoptosis. FIG. 4A: immunofluorescence of DNA cleavage protein γH2Ax was enhanced by using 5-FU and prodrugs 1a-1b. FIG. 4B: immunoblot analysis of MCF-7 cells treated with 5-FU, prodrugs 1a-1b for apoptosis markers PARP1 and Caspase 3. The cells were treated for 48 h with the indicated concentrations of compounds.
Immunohistochemistry Analysis. MCF7 cells were seeded on poly-D-lysine coated slides. Compounds were incubated with cells for 48 h. Following treatment, cells were washed once in PBS and fixed in 10% formalin for 20 min at room temperature. Methanol was used to permeabilize the cells for 10 min and PBS wash was carried out. Bovine serum albumin was used for 1 h blocking and primary antibodies for γH2AX (SCBT, #sc-517348) was incubated with the cells overnight. Fluorescent secondary antibodies were incubated with cells along with DAPI. Cells were washed trice with PBS and the slides were mounted prior to confocal imaging.
To understand the mechanism of action of prodrugs 1a-1b, the impact of the treatment of compounds 1a-1b on the γH2AX formation in MCF7 cells were determined using immunofluorescence assay (FIG. 4A). […] The effects of prodrugs 1a-1b on the PARP1 and caspase 3 cleavage in MCF7 cells were also determined using Western blots assays (FIG. 4B). […] Treatment of 5-FU and compounds 1a-1b increased the levels of cleavage of PARP1 and caspase 3 in MCF7 cells, as compared with that in the vehicle-treated controls. Therefore, prodrugs 1a-1b, similar to 5-FU, can induce MCF7 cell apoptosis, which might contribute to their pharmacological actions.

SW-620 = assay: NCI-60 growth inhibition, SW-620
Source text: as §1

MOLT-4 = assay: NCI-60 growth inhibition, MOLT-4
Source text: as §1

SK-MEL-2 = assay: NCI-60 growth inhibition, SK-MEL-2
Source text: as §1

UO-31 = assay: NCI-60 growth inhibition, UO-31
Source text: as §1

MDA-MB-231/ATCC = assay: NCI-60 growth inhibition, MDA-MB-231/ATCC; settings: Breast Cancer MDA-MB-231/ATCC, 48 h
Source text: as §1

NCI-H226 = assay: NCI-60 growth inhibition, NCI-H226
Source text: as §1

HOP-62 = assay: NCI-60 growth inhibition, HOP-62
Source text: as §1

HCC-2998 = assay: NCI-60 growth inhibition, HCC-2998
Source text: as §1

A498 = assay: NCI-60 growth inhibition, A498
Source text: as §1

NCI-H460 = assay: NCI-60 growth inhibition, NCI-H460
Source text: as §1

UACC-62 = assay: NCI-60 growth inhibition, UACC-62
Source text: as §1

HT29 = assay: NCI-60 growth inhibition, HT29
Source text: as §1

BT-549 = assay: NCI-60 growth inhibition, BT-549
Source text: as §1

SR = assay: NCI-60 growth inhibition, SR; settings: Leukemia SR, 48 h
Source text: as §1

SF-295 = assay: NCI-60 growth inhibition, SF-295
Source text: as §1

SNB-19 = assay: NCI-60 growth inhibition, SNB-19
Source text: as §1

NCI-H522 = assay: NCI-60 growth inhibition, NCI-H522
Source text: as §1

MDA-MB-468 = assay: NCI-60 growth inhibition, MDA-MB-468
Source text: as §1

Q: Which inhibition at 50 µM (SF-539; Homo sapiens, CNS Cancer SF-539, 48 h) does the source give for `CC1(C)OB(c2ccc(Cn3cc(F)c(=O)[nH]c3=O)cc2)OC1(C)C` [Compound 1a, 5-Fluoro-1-(4-(4,4,5,5-tetramethyl-1,3,2-dioxaborolan-2-yl)benzyl)pyrimidine-2,4(1H,3H)-dione] here?
A: Its inhibition at 50 µM is 39%.

Q: What about the inhibition at 50 µM (K-562; Homo sapiens, K562, Leukemia K-562, 48 h) of the same molecule?
A: Its inhibition at 50 µM is 70%.

Q: What about the inhibition at 50 µM (NCI-H23; Homo sapiens, Non-Small Cell lung Cancer NCI-H23, 48 h) of the same molecule?
A: The inhibition at 50 µM was 32%.

Q: What about the inhibition at 50 µM (SN12C; Homo sapiens) of the same molecule?
A: Its inhibition at 50 µM is 19%.

Q: What about the inhibition at 50 µM (DU-145; Homo sapiens, Prostate Cancer DU-145, 48 h) of the same molecule?
A: The inhibition at 50 µM was 16%.

Q: And the inhibition at 50 µM (IGROV1; Homo sapiens, IGROV-1, Ovarian Cancer IGROV1, 48 h)?
A: The inhibition at 50 µM was 56%.

Q: What about the inhibition at 50 µM (OVCAR-4; Homo sapiens, Ovarian Cancer OVCAR-4, 48 h) of the same molecule?
A: Its inhibition at 50 µM is 30%.

Q: And the γH2AX formation (γH2AX)?
A: The γH2AX formation was “dramatically increased”.

Q: What about the inhibition at 50 µM (SW-620; Homo sapiens, Colon Cancer SW-620, 48 h) of the same molecule?
A: The inhibition at 50 µM was 66%.

Q: And the inhibition at 50 µM (MOLT-4; Homo sapiens, Leukemia MOLT-4, 48 h)?
A: Its inhibition at 50 µM is 45%.

Q: And the inhibition at 50 µM (SK-MEL-2; Homo sapiens, Melanoma SK-MEL-2, 48 h)?
A: Its inhibition at 50 µM is 59%.

Q: What about the inhibition at 50 µM (UO-31; Homo sapiens, Renal Cancer UO-31, 48 h) of the same molecule?
A: Its inhibition at 50 µM is 27%.

Q: And the inhibition at 50 µM (MDA-MB-231/ATCC; Homo sapiens)?
A: Its inhibition at 50 µM is 14%.

Q: What about the inhibition at 50 µM (NCI-H226; Homo sapiens, Non-Small Cell lung Cancer NCI-H226, 48 h) of the same molecule?
A: Its inhibition at 50 µM is 36%.

Q: What about the inhibition at 50 µM (HOP-62; Homo sapiens, Non-Small Cell lung Cancer HOP-62, 48 h) of the same molecule?
A: Its inhibition at 50 µM is 36%.

Q: What about the inhibition at 50 µM (HCC-2998; Homo sapiens, Colon Cancer HCC-2998, 48 h) of the same molecule?
A: Its inhibition at 50 µM is 26%.

Q: What about the inhibition at 50 µM (A498; Homo sapiens, Renal Cancer A498, 48 h) of the same molecule?
A: The inhibition at 50 µM was 74%.

Q: What about the inhibition at 50 µM (NCI-H460; Homo sapiens, Non-Small Cell lung Cancer NCI-H460, 48 h) of the same molecule?
A: Its inhibition at 50 µM is 66%.

Q: What about the inhibition at 50 µM (UACC-62; Homo sapiens, Melanoma UACC-62, 48 h) of the same molecule?
A: Its inhibition at 50 µM is 71%.

Q: And the inhibition at 50 µM (HT29; Homo sapiens, HT-29, Colon Cancer HT29, 48 h)?
A: The inhibition at 50 µM was 76%.

Q: And the inhibition at 50 µM (BT-549; Homo sapiens, Breast Cancer BT-549, 48 h)?
A: Its inhibition at 50 µM is 60%.

Q: And the inhibition at 50 µM (SR; Homo sapiens)?
A: The inhibition at 50 µM was 60%.

Q: And the inhibition at 50 µM (SF-295; Homo sapiens, CNS Cancer SF-295, 48 h)?
A: Its inhibition at 50 µM is 14%.

Q: What about the inhibition at 50 µM (SNB-19; Homo sapiens, CNS Cancer SNB-19, 48 h) of the same molecule?
A: Its inhibition at 50 µM is 29%.

Q: What about the inhibition at 50 µM (NCI-H522; Homo sapiens, Non-Small Cell lung Cancer NCI-H522, 48 h) of the same molecule?
A: Its inhibition at 50 µM is 90%.

Q: And the inhibition at 50 µM (MDA-MB-468; Homo sapiens, Breast Cancer MDA-MB-468, 48 h)?
A: The inhibition at 50 µM was 87%.

Q: `O=c1[nH]c(=O)n(Cc2ccc(B(O)O)cc2)cc1F` [Compound 1b, (4-((5-Fluoro-2,4-dioxo-3,4-dihydropyrimidin-I(2H)-yl)methyl)phenyl)boronic acid] was tested. Which “Growth Inhibition (%)” value (SF-539; CNS Cancer SF-539, 50 μM, 48 h) did it give?
A: Its value is 13%.

Q: And the “Growth Inhibition (%)” value (K-562; Leukemia K-562, 50 μM, 48 h)?
A: The value was 18%.

Q: What about the “Growth Inhibition (%)” value (NCI-H23; Non-Small Cell lung Cancer NCI-H23, 50 μM, 48 h) of the same molecule?
A: Its value is 6%.

Q: And the “Growth Inhibition (%)” value (SN12C; 50 μM)?
A: Its value is 7%.

Q: And the “Growth Inhibition (%)” value (DU-145; Prostate Cancer DU-145, 50 μM, 48 h)?
A: Its value is −6%.

Q: What about the “Growth Inhibition (%)” value (IGROV1; Ovarian Cancer IGROV1, 50 μM, 48 h) of the same molecule?
A: Its value is 15%.

Q: What about the “Growth Inhibition (%)” value (OVCAR-4; Ovarian Cancer OVCAR-4, 50 μM, 48 h) of the same molecule?
A: The value was 2%.

Q: What about the γH2AX formation (γH2AX) of the same molecule?
A: Its γH2AX formation is “dramatically increased”.

Q: And the “Growth Inhibition (%)” value (SW-620; Colon Cancer SW-620, 50 μM, 48 h)?
A: Its value is 17%.

Q: And the “Growth Inhibition (%)” value (MOLT-4; Leukemia MOLT-4, 50 μM, 48 h)?
A: The value was 5%.

Q: What about the “Growth Inhibition (%)” value (SK-MEL-2; Melanoma SK-MEL-2, 50 μM, 48 h) of the same molecule?
A: Its value is 7%.

Q: And the “Growth Inhibition (%)” value (UO-31; Renal Cancer UO-31, 50 μM, 48 h)?
A: Its value is 27%.

Q: What about the “Growth Inhibition (%)” value (MDA-MB-231/ATCC; 50 μM) of the same molecule?
A: The value was 13%.

Q: And the “Growth Inhibition (%)” value (NCI-H226; Non-Small Cell lung Cancer NCI-H226, 50 μM, 48 h)?
A: The value was 19%.

Q: What about the “Growth Inhibition (%)” value (HOP-62; Non-Small Cell lung Cancer HOP-62, 50 μM, 48 h) of the same molecule?
A: The value was 10%.

Q: What about the “Growth Inhibition (%)” value (HCC-2998; Colon Cancer HCC-2998, 50 μM, 48 h) of the same molecule?
A: Its value is 5%.

Q: What about the “Growth Inhibition (%)” value (A498; Renal Cancer A498, 50 μM, 48 h) of the same molecule?
A: The value was 31%.

Q: And the “Growth Inhibition (%)” value (NCI-H460; Non-Small Cell lung Cancer NCI-H460, 50 μM, 48 h)?
A: The value was 1%.

Q: And the “Growth Inhibition (%)” value (UACC-62; Melanoma UACC-62, 50 μM, 48 h)?
A: The value was 30%.

Q: What about the “Growth Inhibition (%)” value (HT29; Colon Cancer HT29, 50 μM, 48 h) of the same molecule?
A: Its value is 12%.

Q: And the “Growth Inhibition (%)” value (BT-549; Breast Cancer BT-549, 50 μM, 48 h)?
A: Its value is 30%.

Q: What about the “Growth Inhibition (%)” value (SR; 50 μM) of the same molecule?
A: Its value is 16%.

Q: What about the “Growth Inhibition (%)” value (SF-295; CNS Cancer SF-295, 50 μM, 48 h) of the same molecule?
A: The value was 5%.

Q: And the “Growth Inhibition (%)” value (SNB-19; CNS Cancer SNB-19, 50 μM, 48 h)?
A: Its value is 11%.

Q: What about the “Growth Inhibition (%)” value (NCI-H522; Non-Small Cell lung Cancer NCI-H522, 50 μM, 48 h) of the same molecule?
A: Its value is 44%.

Q: And the “Growth Inhibition (%)” value (MDA-MB-468; Breast Cancer MDA-MB-468, 50 μM, 48 h)?
A: Its value is 22%.
